Values after ≈ are worked out from the molar mass of the structure shown. Active and inactive are the calls of the source. The calls are words filed in the database; no cut-off is given here.
Columns and labels:
Myzus persicae [1] = assay: whole plant or invertebrate; format: functional; settings: 4106A, in Brassica rapa, 72 h
Description: Insecticidal activity against Myzus persicae 4106A (green peach aphid) fed on compound treated chinese cabbage discs after 72 hr

Myzus persicae [2] = assay: Binding affinity to nAChR in neonicotinoid-resistant Myzus persicae FRC-P (green peach aphid) membrane at 0.05 to 16 nM after 70 min; settings: tested as the 3H-labelled form
Myzus persicae [3] = assay: Ratio of Ki for [3H]IMD displacement to [3H]-methyl-SFX displacement from nAChR in Myzus persicae 4106A (green peach aphid) membrane; settings: tested as the 3H-labelled form
Myzus persicae [4] = assay: Insecticidal activity against neonicotinoid-resistant Myzus persicae FRC-P (green peach aphid) fed on compound treated chinese cabbage discs after 72 hr; format: functional; settings: in Brassica rapa
Myzus persicae [5] = assay: Displacement of [3H]-methyl-SFX from nAChR in Myzus persicae (green peach aphid) 4106A membrane at 1 ppm after 70 min

SMILES	LC50 (Myzus persicae [1])	LC50 (Myzus persicae [4])	other results
Cc1nc(C(F)(F)F)ccc1CS(C)(=O)=NC#N (stereo unspecified)	> 100 µg/mL		
CON=CCCC(F)(F)c1ccc(C(C)S(C)(=O)=NC#N)cn1 (stereo unspecified)	> 100 µg/mL		
CC(C)(c1ccc(C(F)(F)F)nc1)S(C)(=O)=NC#N (stereo unspecified)	0.45 µg/mL (≈ 1.54 µM)		Activity (Myzus persicae [2]): inactive; Ratio Ki (Myzus persicae [3]): 100
CN1COCN(Cc2cnc(Cl)s2)/C1=N\[N+](=O)[O-] [THIAMETHOXAM]	0.5 µg/mL (≈ 1.71 µM)	108 µg/mL (≈ 370 µM)	
CS(=O)(Cc1ccc(C(F)(F)Cl)nc1)=NC#N (stereo unspecified)	9.6 µg/mL (≈ 34.3 µM)		
O=[N+]([O-])/N=C1\NCCN1Cc1ccc(Cl)nc1 [IMIDACLOPRID]	0.1 µg/mL (≈ 0.391 µM)	108 µg/mL (≈ 422 µM)	
N#C/N=C1\SCCN1Cc1ccc(Cl)nc1 [THIACLOPRID]	0.4 µg/mL (≈ 1.58 µM)	> 1000 µg/mL	
CCN(CC)c1nc(C)cc(OP(=S)(OC)OC)n1			Activity (Myzus persicae [5]): 2%
CCC(C)c1cc([N+](=O)[O-])cc([N+](=O)[O-])c1O (stereo unspecified)			Activity (Myzus persicae [5]): 13%
CC[C@H](C)[C@H]1O[C@]2(C=C[C@@H]1C)C[C@@H]1C[C@@H](C/C=C(\C)[C@@H](O[C@H]3C[C@H](OC)[C@@H](O[C@H]4C[C@H](OC)[C@@H](O)[C@H](C)O4)[C@H](C)O3)[C@@H](C)/C=C/C=C3\CO[C@@H]4[C@H](O)C(C)=C[C@@H](C(=O)O1)[C@]34O)O2.CO[C@H]1C[C@H](O[C@H]2[C@H](C)O[C@@H](O[C@@H]3/C(C)=C/C[C@@H]4C[C@@H](C[C@]5(C=C[C@H](C)[C@@H](C(C)C)O5)O4)OC(=O)[C@@H]4C=C(C)[C@@H](O)[C@H]5OC/C(=C\C=C\[C@@H]3C)[C@]54O)C[C@@H]2OC)O[C@@H](C)[C@@H]1O			Activity (Myzus persicae [5]): -6%
CC(c1ccc(C(F)(F)F)nc1)S(C)(=O)=NC(N)=O (stereo unspecified)	> 100 µg/mL		
CN/C(=N/CC1CCOC1)N[N+](=O)[O-] (stereo unspecified) [DINOTEFURAN]	10 µg/mL (≈ 49.5 µM)	538 µg/mL (≈ 2660 µM)	
CCN(Cc1ccc(Cl)nc1)/C(=C/[N+](=O)[O-])NC [NITENPYRAM]	1.3 µg/mL (≈ 4.8 µM)	236 µg/mL (≈ 872 µM)	
N#Cc1nn(-c2c(Cl)cc(C(F)(F)F)cc2Cl)c(N)c1[S+]([O-])C(F)(F)F (stereo unspecified)			Activity (Myzus persicae [5]): 30%
C[C@@](F)(c1ccc(C(F)(F)F)nc1)S(C)(=O)=NC#N (stereo partly specified)	4.64 µg/mL (≈ 15.7 µM)		
CNC(=O)O/N=C/C(C)(C)SC			Activity (Myzus persicae [5]): 0%
CS(=O)(Cc1cnc(Cl)s1)=NC#N (stereo unspecified)	14.4 µg/mL (≈ 61.2 µM)		
CCS(=O)(=NC#N)C(C)(C)c1ccc(C(F)(F)F)nc1 (stereo unspecified)	20.5 µg/mL (≈ 67.1 µM)		
CC(c1ccc(C(F)(F)F)nc1)S(C)(=O)=NC#N (stereo unspecified) [SULFOXAFLOR]	0.08 µg/mL (≈ 0.289 µM)	4.3 µg/mL (≈ 15.5 µM)	
CC1(C)[C@H](/C=C(\Cl)C(F)(F)F)[C@@H]1C(=O)O[C@@H](C#N)c1cccc(Oc2ccccc2)c1 (relative stereo)			Activity (Myzus persicae [5]): 3%
CC(c1ccc(Cl)nc1)S(C)(=O)=NC#N (stereo unspecified)	1.4 µg/mL (≈ 5.74 µM)		
CC(c1ccc(C(F)(F)F)nc1)S(C)(=O)=N[N+](=O)[O-] (stereo unspecified)	> 100 µg/mL		
C=CCC(F)(F)c1ccc(C(C)S(C)(=O)=NC#N)cn1 (stereo unspecified)	> 100 µg/mL		
CNC(=O)c1cc(Cl)cc(C)c1NC(=O)c1cc(Br)nn1-c1ncccc1Cl			Activity (Myzus persicae [5]): 8%
C/C(=N\C#N)N(C)Cc1ccc(Cl)nc1 [ACETAMIPRID]	0.6 µg/mL (≈ 2.69 µM)	49.3 µg/mL (≈ 221 µM)	
CN/C(=N\[N+](=O)[O-])NCc1cnc(Cl)s1 [CLOTHIANIDINE]	0.3 µg/mL (≈ 1.2 µM)	904 µg/mL (≈ 3620 µM)	

Reference: ChEMBL document CHEMBL3046554, “Investigating the mode of action of sulfoxaflor: a fourth-generation neonicotinoid” (Pest Manag Sci, 2013)
